# Measured values as given in patent US10273278B2, “Epitope recognized by anti-interferon gamma autoantibodies in patients with disseminated mycobacterial infections and the application therefor” (priority 2015, dated 2019).
# What was measured:
# [1] = tested on: WKY/NcrlNarl rats; experiment: Immunization of rats with Noc2 or IFNr peptide conjugated with OVA; assay type: in vivo, rat; settings: 0.25 mg peptide-OVA, booster every two weeks
# Description: The inventor immunized WKY/NcrlNarl rats with 0.25 mg Noc2 or IFNr[…] peptide (Noc2: […] (SEQ NO: 31); IFNr: […] (SEQ NO: 32)) conjugated with ovalbumin (OVA) and gave a booster dose every two weeks after the initial injection (day 0). After 70 days, the inventor checked the antibody production level by dot blot or ELISA at each injection. All rats were sacrificed ten days after the tenth injection (day 136) and whole blood was collected. After collection of the whole blood, the blood was allowed to clot by leaving it undisturbed at room temperature 15 minutes. Clots were removed by centrifuging at 1500 g for 10 minutes in a refrigerated centrifuge. Sera were aliquoted and stored at −20° C. for further use.
# Blood sera from pre-immunized rats (n=6), Noc2 peptide-immunized rats (n=4) and Peptide 6-immunized rats (n=2) were mapped to control peptide, Peptide 6 and Noc2 peptide from Aspergillus terreus or Aspergillus fumigatus. This is represented as the mean optical density (OD) at 405 nm.
# [2] = tested on: THP1 cells; experiment: p-STAT1 in THP1 cells pre-incubated with sera of immunized rats and treated with IFNr; assay type: cell-based; settings: 50% sera
# [3] = tested on: anti-IFNr AutoAbs; experiment: Protein mapping ELISA of recombinant IFNr proteins with blood plasma; assay type: binding, human; settings: for recognition of recombinant IFNr protein by blood plasma (ELISA): plasma from group-1 patients
# [4] = tested on: anti-IFNr AutoAbs; experiment: Immunoblotting (Western blot / dot blot) with patient or control plasma; assay type: binding, human; settings: for recognition by anti-IFNr AutoAbs in Western blot and dot blot: plasma from anti-IFNr AutoAbs patients; for binding of plasma from healthy controls in Western blot: plasma from healthy donors
# Description: Recombinant IFNr[…] (R&D Systems) and different truncated forms of recombinant IFNr[…] were subjected to SDS-PAGE using a 10% gel under reducing conditions at 120 V for 2 hours. The proteins were transferred to a PVDF membrane (Invitrogen Life Technologies) at 250 mA for 2 hours. The membrane was blocked in 5% human normal serum albumin (Aventis) in TBS with 0.1% Tween 20 overnight at 4° C. The membrane was incubated with a 1/100 dilution of patient or control blood plasma for 3 hours at room temperature. After being washed three times, the membrane was incubated in a 1/10,000 dilution of mouse anti-human IgG conjugated with horseradish peroxidase (Jackson ImmunoResearch Laboratories) for 1 hour at room temperature. After being washed three times, the membrane was developed with ECL (Merck Millipore).
# Plasma from 3 healthy donors had no response to either IFNr1-131 or EE-IFNr.
# [5] = tested on: anti-IFNr AutoAbs; experiment: Competition ELISA against coated peptide 6; assay type: binding, human; settings: patient plasma pre-incubated with 5-30 μg/mL competitor peptide
# Description: To evaluate the specificity of the reaction, a competition ELISA experiment was performed. Each plasma sample (1:100 dilutions) was pre-incubated with different concentrations (5-30 μg/mL) of the competition peptides overnight at 4° C. Subsequently, all plasma and different concentrations competition peptides mixture samples were examined following the epitope mapping protocol. Peptide 6 was coated with b-carbonate buffer (pH 9.6) at 4° C. overnight. After blocking at 37° C. for 1 hour, all pre-incubated plasma and different concentrations competition peptides mixture samples were added in duplicate. Following 2 hours of room temperature incubation, goat anti-human IgG Fcr fragment specific conjugated with alkaline phosphate, was added. Finally, 100 μL of pNPP was added and the reaction was read at 405 nm by a VICTOR X3 Multilabel Plate Reader (PerkinElmer) after 30 minutes of incubation at 37° C.
# [6] = tested on: anti-IFNr AutoAbs; experiment: Epitope mapping ELISA of synthetic peptides with blood plasma; assay type: binding, human; settings: for recognition of synthetic peptide by blood plasma: plasma from anti-IFNr AutoAbs patients (group-1), 1:100, OD 405 nm
# Description: Clear polystyrene 96-well flat bottom plates (Nunc) were coated with 100 μL of peptide solution (5 μg/mL) with b-carbonate buffer (pH 9.6) at 4° C. overnight. After blocking the remaining binding sites with 5% human normal serum albumin (Aventis) in PBS, the plates were incubated at 37° C. for 1 hour. Afterward, the plates were washed 3 times with 0.5% Tween 20 in PBS.
# Blood plasma samples were added at a 1:100 dilution, in PBS containing 5% human normal serum albumin. Following incubation at room temperature for 2 hours and being washed 3 times, goat anti-human IgG Fcr fragment specific conjugated with alkaline phosphate (Jackson ImmunoResearch Laboratories), was added at a 1:5000 dilution, and the plates were kept for 1 hour at room temperature. Finally, after being washed 5 times, 100 μL of p-Nitrophenyl Phosphate (pNPP) was added and the reaction was read at 405 nm by a VICTOR X3 Multilabel Plate Reader (PerkinElmer) after 30 minutes of incubation at 37° C.
# [7] = tested on: HLA-DR expression in PBMCs; experiment: HLA-DR expression in PBMCs (CD14+ gated); assay type: cell-based, human; settings: IFNr AutoAbs patients' PBMCs pre-incubated with 10% autologous plasma
# Description: A total of 10^6 PBMCs in 200 μL RPMI-1640 with 10% FBS and 1% penicillin/streptomycin was used. Cells were then stimulated with 500 IU IFNr, IFNr_1-131 or EE-IFNr⋅ in 160 μL RPMI-1640 pre-incubated with 40 μL of normal blood plasma or patient blood plasma for 10 min at room temperature. After 24 hours of stimulation in a 37° C. incubator, monocytes were identified by FITC-CD14 (BD Pharmingen) surface staining. Next, PE-HLA-DR antibody (BD Pharmingen) was added followed by 30 minutes of incubation on ice in the dark. Cells were again washed with 2 ml of PBS before resuspension in 500 μl of PBS. Data were collected with a FACSVerse flow cytometer (BD Biosciences) and analyzed using FACSuite software (BD Biosciences).
# After being gated on the CD14^+, HLA-DR expression levels were determined by flow cytometry with the HLA-DR monoclonal antibody. Representative histograms (FIG. 4d(1)-FIG. 4d(2)) and MFI (median fluorescence intensity) (FIG. 4e) are shown.
# [8] = tested on: p-STAT1 in PBMCs; experiment: p-STAT1 intracellular stain in PBMCs (CD14+ gated); assay type: cell-based, human; settings: for p-STAT1 signaling restored / up-regulated: IFNr AutoAbs patients' PBMCs pre-incubated with 10% autologous blood plasma; for phosphorylation of STAT1: controls' PBMCs pre-incubated with 20% blood plasma with anti-IFNr AutoAbs from patients; for p-STAT1 signaling: controls' PBMCs, 20% control blood plasma
# Description: A total of 10^6 PBMCs in 200 μL RPMI-1640 with 10% FBS and 1% penicillin/streptomycin was used. […] After 30 minutes of stimulation in a 37° C. incubator, monocytes were identified by FITC-CD14 (BD Pharmingen) surface staining. Fixed by adding 250 μL of FASC lysing solution (BD Pharmingen) and incubated at room temperature for 15 minutes in the dark, followed by two washes with PBS. To permeabilize the cells, 500 μl of ice-cold absolute methanol was added to each tube and incubated for 15 minutes on ice in the dark, followed by two washes with PBS. Next, PE-phospho-STAT1 (pY701) antibody (BD Pharmingen) was added, followed by 30 minutes incubation on ice in the dark. Again, cells were washed with 2 mL of PBS before resuspension in the 500 μL of PBS. Data were collected with a FACSVerse flow cytometer (BD Biosciences) and analyzed using FACSuite software (BD Biosciences).
# Representative histograms (FIG. 2c(1)-FIG. 2c(2)) and MFI (median fluorescence intensity) (FIG. 2d) are shown.
# After being gated on the CD14^+, p-STAT-1 levels were determined by flow cytometry with the p-STAT-1 monoclonal antibody. Representative histograms (FIG. 4a(1)-FIG. 4a(2)) and MFI (median fluorescence intensity) (FIG. 4b) are shown.
# [9] = tested on: p-STAT1 in whole blood; experiment: p-STAT1 in whole blood ex vivo; assay type: cell-based, human; settings: for p-STAT1 signaling restored / up-regulated: IFNr AutoAbs patients' whole blood; for p-STAT1 signal: controls' whole blood
# Excerpt: Representative histograms (FIG. 4f(1)-FIG. 4f(2)) and MFI (median fluorescence intensity) (FIG. 4g) are shown.
# [10] = tested on: IL-12p40 in PBMCs; assay type: cell-based, human
# [11] = tested on: anti-IFNr AutoAbs; experiment: Detection and titration of IFNr neutralizing autoantibodies (patient plasma, IFNr ELISA); assay type: binding, human; settings: 200 pg/mL IFNr incubated with serially diluted patient plasma
# Description: Blood plasma from patients and donors was serially diluted (10^−1 to 10^−6) and incubated with recombinant human IFNr at a final concentration of 200 pg/mL for 1 hour at 37° C. The IFNr level was measured with a human IFNr ELISA kit from BD Biosciences according to the manufacturer's recommendations. All experiments were performed in duplicate.
molecule,measurement,setting,value
CTPKTGKRKRSEQ,antibodies developed after immunization,[1],developed anti-Noc2 antibodies that cross-reacted with human IFNr
same,p-STAT1 signaling after recombinant IFNr in presence of sera of immunized rats,[2],decreased up-regulation of p-STAT1 signaling
IFNr_1-144: full-length recombinant IFNr expressed in Schneider 2 cells [reference compound],recognition of recombinant IFNr protein by blood plasma (ELISA),[3],recognized by blood plasma isolated from the group-1 patients
same,recognition by anti-IFNr AutoAbs in Western blot and dot blot,[4],recognized by anti-IFNr AutoAbs
KKDVTPKTGKRKRSEQQKDE (KKDVPPKTGKRKRSEQQKDE; listed as Aspergillus terreus) [Aspergillus Noc2 peptide],competition for AutoAbs binding to coated peptide 6,[5],compete for IFNr AutoAbs binding with peptide 6 in a dose dependent manner
same,recognition of synthetic peptide by blood plasma,[6],recognized by blood plasma isolated from patients with anti-IFNr AutoAbs
same,binding of synthetic peptide by blood plasma,[6]; plasma from mycobacteria infected patients without AutoAbs / healthy controls,did not react
"peptide 6: 30-mer synthetic peptide of human IFNr, P114-143 (IQVMAELSPAAKTGKRKRSQMLFRGRRASQ; UniProt P01579 137-166, looked up, fragment)",competition for AutoAbs binding to coated peptide 6,[5],competition for the binding with coated peptide 6 in a dose dependent manner
same,recognition of synthetic peptide by blood plasma,[6],recognized in the blood plasma isolated from the 12 patients in group-1
same,recognition of synthetic peptide by non-neutralizing AutoAbs,[6]; plasma from healthy donors with non-neutralizing IFNr AutoAbs,did not recognize
"recombinant IFNr: Recombinant human IFNr (R&D Systems), commercial wild type [reference compound]",HLA-DR expression levels restored / up-regulated,[7],up-regulated HLA-DR expression levels were not observed
same,p-STAT1 signaling restored / up-regulated,[8],up-regulated p-STAT1 signaling cannot be observed
same,phosphorylation of STAT1,[8],not
same,p-STAT1 signaling,[8],Up-regulation of the p-STAT1 signaling was observed
same,p-STAT1 signaling restored / up-regulated,[9],up-regulated p-STAT1 signaling was not found
same,p-STAT1 signal,[9],up-regulated
same,IL-12p40 expression,[10],elevation of IL-12p40 expression couldn't be observed
"IFNr_1-131: truncated recombinant human IFNr, deletion clone a.a. 1-131, expressed in Schneider 2 cells (protein, left off: small tags and cut ends, truncated recombinant human IFNr, deletion clone a.a; 1-131, expressed in Schneider 2 cells) QDPYVKEAENLKKYFNAGHSDVADNGTLFLGILKNWKEESDRKIMQSQIVSFYFKLFKNFKDDQSIQKSVETIKEDMNVKFFNSNKKKRDDFEKLTNYSVTDLNVQRKAIHELIQVMAELSPAAKTGKRKR",HLA-DR expression levels restored / up-regulated,[7],up-regulated HLA-DR expression levels were not observed
same,affinity of anti-IFNr AutoAbs by ELISA,"[3]; patients' blood plasma, OD 405 nm",bound to IFNr_1-131 in a dose dependent manner
same,recognition of recombinant IFNr protein by blood plasma (ELISA),[3],recognized by blood plasma isolated from the group-1 patients
same,p-STAT1 signaling restored / up-regulated,[8],up-regulated p-STAT1 signaling cannot be observed
same,phosphorylation of STAT1,[8],not
same,p-STAT1 signaling,[8],Up-regulation of the p-STAT1 signaling was observed
same,p-STAT1 signaling restored / up-regulated,[9],up-regulated p-STAT1 signaling was not found
same,p-STAT1 signal,[9],up-regulated
same,recognition by anti-IFNr AutoAbs in Western blot and dot blot,[4],recognized by anti-IFNr AutoAbs
same,binding of plasma from healthy controls in Western blot,[4],no response
same,binding of plasma from healthy controls in Western blot,[4]; listed as WT IFNr_1-131,could not bind
same,IL-12p40 expression,[10],elevation of IL-12p40 expression couldn't be observed
"mIFNr: murine IFNr (protein, UniProt P01580 23-155, looked up) Interferon gamma: HGTVIESLESLNNYFNSSGIDVEEKSLFLDIWRNWQKDGDMKILQSQIISFYLRLFEVLKDNQAISNNISVIESHLITTFFSNSKAKKDAFMSIAKFEVNNPQVQRQAFNELIRVVHQLLPESSLRKRKRSRC",blocking of IFNr detection by plasma from patients with AutoAbs (plasma dilution),[11],no blocking activity
same,blocking of IFNr detection by plasma from patients with AutoAbs (plasma dilution),[11]; listed as murine IFNr,did not show blocking activity
